# Data as given in patent publication US4853407A, “Aminoethylcysteine derivatives” (Sanraku Incorporated, priority 1987, dated 1989).
# Assays:
# [1] = In vivo test on dipeptidase-inhibiting activity (recovery of co-administered antibiotic 88617 in urine); set-up: species or system ddY mice; settings: mouse, sc; control: antibiotic 88617 alone, 20 mg/kg subcutaneous; urine collected 6 hours; average of five mice; read-out: Recovery ratio of antibiotic 88617 in urine
# Protocol: (§1) Five weeks aged ddY mice were grouped five mice for one group, and aqueous solutions containing 80 or 250 mg/ml concentration of the dipeptidase-inhibiting agent of this invention (adjusted with 1N NaOH to pH 7.5) were intravenously administered to the mice. A control group was administered with a same amount of pure water. 3 to 5 minutes after the administration, 0.25 ml of an antibiotic 88617 (M/100 PBS, pH 7.0 solutions) at 5 or 20 mg/kg-mouse were subcutaneously administered to the mice. Six hours after the administration of the antibiotic 88617, all the urines of the mice were collected and the concentrations of the antibiotic 88617 in all the collected urines were measured by disc-agar diffusion method in which Comamonas terrigena was used as test bacteria, and average values of five mice were determined.
# [2] = biological target: T1, dipeptidase (Rattus norvegicus, UniProt P31430); test: In vitro test on dipeptidase-inhibiting activity (antibiotic PS-5 as substrate, absorbance at 301 nm); assay type: biochemical; settings: partially purified dipeptidase from rat kidney; substrate antibiotic PS-5, pH 8.0, 37° C., 5 minutes; read-out: ID50 (the source's name)
# T1 construct: to obtain a partially purified sample of dipeptidase; from tissue; host or cells: rat kidney, microsome fraction, trypsin-treated, Triton X-100 solubilised, partially purified
# T1 sequence (P31430 17-410): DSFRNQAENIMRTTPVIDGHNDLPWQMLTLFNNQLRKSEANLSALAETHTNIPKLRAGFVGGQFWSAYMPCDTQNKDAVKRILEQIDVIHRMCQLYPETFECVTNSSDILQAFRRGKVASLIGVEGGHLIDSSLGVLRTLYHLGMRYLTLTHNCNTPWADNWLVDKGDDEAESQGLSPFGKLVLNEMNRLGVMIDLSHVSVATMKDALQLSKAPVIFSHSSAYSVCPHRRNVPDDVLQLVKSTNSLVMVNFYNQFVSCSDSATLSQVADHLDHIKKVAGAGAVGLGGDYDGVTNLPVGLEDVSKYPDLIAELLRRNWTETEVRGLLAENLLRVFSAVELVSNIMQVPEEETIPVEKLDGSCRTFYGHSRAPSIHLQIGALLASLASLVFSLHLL
# Protocol: Rats were sacrificed by decapitation to bleed, and about 12 g of fresh kidneys were collected. And a microsome fraction was obtained by subcellular fractionating method according to fractional centrifugation of Hogboom (Methods in Enzymology, vol. 1, pages 16-19, Academic Press, New York, 1955). This microsome fraction was treated with 400 μg/ml of trypsin at 0° C. for 16 hours, and then subjected to fractional ultracentrifugation at 10^5 G at 0° C. for 60 minutes.
# The resultant precipitate was solubilized by 20 ml of Tris-HCl buffer (20 mM, pH 7.6) containing a surfactant (0.4% Triton® X-100), and subjected to fractional ultracentrifugation at 10^5 G at 0° C. for 60 minutes. […]
# The enzyme obtained above ([…]) was preincubated together with 30 μl of an inhibiting agent solution in a cuvette at 37° C. for 5 minutes. […] The reaction was carried out within a cuvette of HITACHI spectrophotometer equipped with a constant temperature device (37° C.), and decreases of absorbance at a wavelength of 301 nm for 5 minutes were determined by a recorder.
# By the values obtained above and values from control containing no inhibiting agent, the percent inhibition and ID50 at a predetermined inhibition concentration were determined.
# [3] = system: dipeptidase; test: In vivo test on dipeptidase-inhibiting activity (recovery of co-administered antibiotic 88617 in urine); set-up: species or system ddY mice; settings: 6 hours, average of five mice
# Protocol: as §1
Compound,dose excreted at 6 h [1],IC50 [2],Recovery ratio of antibiotic 88617 in urine when dipeptidase-inhibiting agent was co-administered ([3]; inhibitor 50 mg/kg intravenous in combination with antibiotic 88617 20 mg/kg subcutaneous),Recovery ratio of antibiotic 88617 in urine when dipeptidase-inhibiting agent was co-administered ([3]; inhibitor 250 mg/kg intravenous in combination with antibiotic 88617 20 mg/kg subcutaneous)
"CN=C(CSC1=C(C(=O)O)N2C(=O)C(C(C)F)C2C1)N(C)C (centres unmarked) [Antibiotic 88617, reference compound]",27.5%,,,
"O=C(NCCSC[C@H](NC(=O)c1ccccc1)C(=O)O)c1ccccc1 [Compound No. 1, N-benzoyl-S-(2-benzoylaminoethyl)-L-cysteine]",,210 µM,38.0%,57.2%
"O=C(O)[C@H](CSCCN1C(=O)c2ccccc2C1=O)N1C(=O)c2ccccc2C1=O [Compound No. 2, S-(2-phthalimidethyl)-N-phthaloyl-L-cysteine]",,480 µM,,
